Assay results from patent US6730667B2, “Iontophoresis disc pain blocker” (priority 2001, dated 2004).

Test system: overactive nerve fibers
Test: Iontophoretic delivery, practical patient experience
Type: in vivo, human
Settings: ketamine at 2 to 4% or higher, clonidine at 0.2 to 0.4%, unbuffered; positive polarity
Method: Once the desired nerve or nerves are identified, a preselected composition of pharmaceuticals 14 is prepared for an administration step 16. Administration may be topical, by methods including gel 18 or spray 20. Iontophoresis is a preferred method. The composition is applied to a patch 22 for iontophoretic administration. Suitable patch structures include both single and multi-layered gel matrix discs. For example, a patch may be arranged with one or more layers of pH buffered electrolytes between drug layers. Ionotphoresis 24 delivers the drugs by application of tiny unipolar or switchable bipolar micro amperage current to the gel disc over the next 24 to 36 plus hours, producing blockade to the excessive nerve firing.
These are ketamine, which is an NMDA receptor blocker, at 2 to 4% or higher, and clonidine, which is an […], at 0.2 to 0.4% concentration, unbuffered. Both have positive polarity, and are positive charged. Selection of positive polarity would push the drug along the pathway of least resistance, finding the involved overactive nerve fibers; and pain blockade would occur.

Structure (SMILES) | suitability for delivery by iontophoresis
Clc1cccc(Cl)c1N=C1NCCN1 [clonidine] | work well
CNC1(c2ccccc2Cl)CCCCC1=O (centres unmarked) [ketamine] | work well
